Data from ChEMBL document CHEMBL1201862, “PubChem BioAssay data set” (2004).
The source made the active and inactive calls.

Columns and labels:
Hexokinase-1 = target: T1, Hexokinase-1 (Homo sapiens, UniProt P19367); assay: HK1 enzyme inhibition by HKDC1 hits, SAR follow-up, selectivity assay for HKDC1 inhibitor project, biochemical, set 2, resazurin fluorescence coupled readout (AID 588356); type: functional
T1 sequence (P19367 whole entry): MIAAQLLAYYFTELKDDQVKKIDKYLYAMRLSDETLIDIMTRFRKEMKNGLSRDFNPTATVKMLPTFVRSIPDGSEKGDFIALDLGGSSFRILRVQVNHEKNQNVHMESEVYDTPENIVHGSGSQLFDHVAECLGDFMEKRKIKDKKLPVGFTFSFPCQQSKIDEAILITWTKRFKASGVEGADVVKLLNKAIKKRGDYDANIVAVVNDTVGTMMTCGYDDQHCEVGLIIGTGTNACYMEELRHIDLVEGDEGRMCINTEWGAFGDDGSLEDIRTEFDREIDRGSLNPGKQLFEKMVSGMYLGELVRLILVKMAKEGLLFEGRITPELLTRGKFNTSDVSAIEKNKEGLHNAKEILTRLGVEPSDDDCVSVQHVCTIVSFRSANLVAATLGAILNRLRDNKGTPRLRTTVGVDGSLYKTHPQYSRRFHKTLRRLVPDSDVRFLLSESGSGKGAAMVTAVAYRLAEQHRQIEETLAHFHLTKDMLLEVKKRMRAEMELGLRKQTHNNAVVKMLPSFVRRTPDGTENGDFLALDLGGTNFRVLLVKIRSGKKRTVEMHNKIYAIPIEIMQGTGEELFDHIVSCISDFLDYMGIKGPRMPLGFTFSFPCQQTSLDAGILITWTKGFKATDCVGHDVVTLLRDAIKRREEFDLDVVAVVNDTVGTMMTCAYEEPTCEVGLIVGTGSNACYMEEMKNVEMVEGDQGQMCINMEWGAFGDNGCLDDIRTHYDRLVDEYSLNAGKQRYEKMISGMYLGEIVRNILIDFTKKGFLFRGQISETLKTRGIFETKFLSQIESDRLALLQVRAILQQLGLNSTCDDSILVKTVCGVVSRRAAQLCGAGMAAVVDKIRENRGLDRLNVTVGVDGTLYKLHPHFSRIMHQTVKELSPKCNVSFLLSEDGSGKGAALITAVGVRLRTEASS

Hexokinase HKDC1 = target: T2, Hexokinase HKDC1 (Homo sapiens, UniProt Q2TB90); assay: HKDC1 hexokinase inhibitors, SAR follow-up, biochemical, set 2 (AID 588355); type: functional
T2 sequence (Q2TB90 whole entry): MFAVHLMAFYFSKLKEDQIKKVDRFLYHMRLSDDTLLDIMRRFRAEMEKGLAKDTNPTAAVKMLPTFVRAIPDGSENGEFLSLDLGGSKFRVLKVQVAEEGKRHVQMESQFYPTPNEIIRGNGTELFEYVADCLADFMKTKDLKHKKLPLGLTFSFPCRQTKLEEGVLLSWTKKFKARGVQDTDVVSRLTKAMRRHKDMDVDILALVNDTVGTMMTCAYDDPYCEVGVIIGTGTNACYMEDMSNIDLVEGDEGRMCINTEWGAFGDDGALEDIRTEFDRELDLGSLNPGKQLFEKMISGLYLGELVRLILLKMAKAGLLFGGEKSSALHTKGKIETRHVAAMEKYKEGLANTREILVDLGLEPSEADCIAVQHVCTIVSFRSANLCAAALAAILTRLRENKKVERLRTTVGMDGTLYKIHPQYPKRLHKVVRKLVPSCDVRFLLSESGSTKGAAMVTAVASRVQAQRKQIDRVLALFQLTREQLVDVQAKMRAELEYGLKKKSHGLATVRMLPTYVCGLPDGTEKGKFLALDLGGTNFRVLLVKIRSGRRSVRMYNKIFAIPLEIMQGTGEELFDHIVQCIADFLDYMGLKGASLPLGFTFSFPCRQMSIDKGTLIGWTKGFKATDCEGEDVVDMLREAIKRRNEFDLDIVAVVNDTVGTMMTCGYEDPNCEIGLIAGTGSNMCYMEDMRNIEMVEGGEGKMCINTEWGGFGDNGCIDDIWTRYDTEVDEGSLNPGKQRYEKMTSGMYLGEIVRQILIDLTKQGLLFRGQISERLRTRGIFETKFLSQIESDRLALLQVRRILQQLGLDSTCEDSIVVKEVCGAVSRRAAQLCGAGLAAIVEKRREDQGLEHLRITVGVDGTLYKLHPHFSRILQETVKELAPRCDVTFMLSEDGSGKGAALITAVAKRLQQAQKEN

Escherichia coli = assay: microbe, parasite or virus in culture
[1] = cytotoxicity in MIN6 insulinoma cells, dose response, cytotoxicity control, cell-based, mouse insulinoma (AID 2122); type: functional;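 note: confirmatory high-throughput counterscreen run to flag cytotoxic compounds; mouse MIN-6 beta cells carrying an insulin promoter eGFP reporter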
[2] = insulin promoter down-regulators in MIN6 cells, imaging, high-content screening, mouse beta cells (AID 1628); type: functional
[3] = target: Dual specificity protein kinase CLK1 (Homo sapiens, UniProt P49759); assay: CLK1 kinase inhibitors, off-target check, dose response, selectivity assay for Dyrk1A inhibitor project, biochemical, cherry-picked samples (AID 588811)
Chain of Dual specificity protein kinase CLK1 (P49759 whole entry): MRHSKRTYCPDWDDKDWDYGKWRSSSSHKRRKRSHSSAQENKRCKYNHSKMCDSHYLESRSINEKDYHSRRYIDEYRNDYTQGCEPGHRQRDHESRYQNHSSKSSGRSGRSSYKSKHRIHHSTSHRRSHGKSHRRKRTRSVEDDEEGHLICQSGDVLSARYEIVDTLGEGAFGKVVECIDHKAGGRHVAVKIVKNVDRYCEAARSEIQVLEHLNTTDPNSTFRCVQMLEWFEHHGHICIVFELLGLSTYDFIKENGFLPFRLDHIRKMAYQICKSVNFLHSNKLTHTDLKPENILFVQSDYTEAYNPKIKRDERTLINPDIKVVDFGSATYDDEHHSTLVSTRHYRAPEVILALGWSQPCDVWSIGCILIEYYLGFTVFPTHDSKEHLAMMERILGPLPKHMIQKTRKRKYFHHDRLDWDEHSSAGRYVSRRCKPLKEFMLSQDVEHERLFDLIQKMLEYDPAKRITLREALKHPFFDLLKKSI

Cytochrome P450 2D6 = Cytochrome P450 2D6 (Homo sapiens, UniProt P10635);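 note: CYP2D6 member of a cytochrome P450 panel assay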
Chain of Cytochrome P450 2D6 (P10635 whole entry): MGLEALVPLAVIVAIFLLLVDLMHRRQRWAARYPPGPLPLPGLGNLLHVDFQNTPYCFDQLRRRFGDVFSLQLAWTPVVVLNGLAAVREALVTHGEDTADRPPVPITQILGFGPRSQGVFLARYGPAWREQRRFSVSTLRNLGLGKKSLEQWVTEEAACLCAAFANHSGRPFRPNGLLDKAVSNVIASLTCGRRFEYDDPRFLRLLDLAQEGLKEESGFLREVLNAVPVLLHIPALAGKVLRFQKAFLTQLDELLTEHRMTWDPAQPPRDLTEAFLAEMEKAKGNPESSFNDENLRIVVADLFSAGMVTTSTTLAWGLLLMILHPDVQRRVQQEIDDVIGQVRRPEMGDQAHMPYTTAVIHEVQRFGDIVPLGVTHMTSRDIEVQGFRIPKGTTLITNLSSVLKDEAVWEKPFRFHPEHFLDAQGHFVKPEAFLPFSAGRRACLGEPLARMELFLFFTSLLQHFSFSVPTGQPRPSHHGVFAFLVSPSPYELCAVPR

[4] = target: Peroxisome proliferator-activated receptor gamma/Nuclear receptor coactivator 2 (Homo sapiens, UniProt P37231); type: functional;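 note: agonist potency for raising coactivator recruitment to the receptor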
Cytochrome P450 2C9 = Cytochrome P450 2C9 (Homo sapiens, UniProt P11712)
[5] = target: Peroxisome proliferator-activated receptor gamma/Nuclear receptor coactivator 3 (Homo sapiens, UniProt P37231); type: functional;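 note: agonist potency for raising coactivator recruitment to the receptor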
Chain of Peroxisome proliferator-activated receptor gamma/Nuclear receptor coactivator 3 (P37231 whole entry): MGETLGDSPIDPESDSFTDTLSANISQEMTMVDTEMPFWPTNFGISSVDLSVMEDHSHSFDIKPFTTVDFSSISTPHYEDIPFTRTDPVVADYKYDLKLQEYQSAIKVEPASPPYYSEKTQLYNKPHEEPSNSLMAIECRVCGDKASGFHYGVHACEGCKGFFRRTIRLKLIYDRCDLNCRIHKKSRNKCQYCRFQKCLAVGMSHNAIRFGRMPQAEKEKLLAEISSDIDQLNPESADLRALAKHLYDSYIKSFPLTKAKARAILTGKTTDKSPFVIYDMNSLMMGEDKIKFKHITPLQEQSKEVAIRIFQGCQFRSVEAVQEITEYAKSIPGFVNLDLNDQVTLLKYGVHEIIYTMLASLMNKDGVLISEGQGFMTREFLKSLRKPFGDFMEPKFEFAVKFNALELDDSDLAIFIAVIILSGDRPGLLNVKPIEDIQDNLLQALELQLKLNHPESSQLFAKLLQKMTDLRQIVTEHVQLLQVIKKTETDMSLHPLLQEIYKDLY
Chain of Peroxisome proliferator-activated receptor gamma/Nuclear receptor coactivator 3 (Q9Y6Q9 whole entry, further chain): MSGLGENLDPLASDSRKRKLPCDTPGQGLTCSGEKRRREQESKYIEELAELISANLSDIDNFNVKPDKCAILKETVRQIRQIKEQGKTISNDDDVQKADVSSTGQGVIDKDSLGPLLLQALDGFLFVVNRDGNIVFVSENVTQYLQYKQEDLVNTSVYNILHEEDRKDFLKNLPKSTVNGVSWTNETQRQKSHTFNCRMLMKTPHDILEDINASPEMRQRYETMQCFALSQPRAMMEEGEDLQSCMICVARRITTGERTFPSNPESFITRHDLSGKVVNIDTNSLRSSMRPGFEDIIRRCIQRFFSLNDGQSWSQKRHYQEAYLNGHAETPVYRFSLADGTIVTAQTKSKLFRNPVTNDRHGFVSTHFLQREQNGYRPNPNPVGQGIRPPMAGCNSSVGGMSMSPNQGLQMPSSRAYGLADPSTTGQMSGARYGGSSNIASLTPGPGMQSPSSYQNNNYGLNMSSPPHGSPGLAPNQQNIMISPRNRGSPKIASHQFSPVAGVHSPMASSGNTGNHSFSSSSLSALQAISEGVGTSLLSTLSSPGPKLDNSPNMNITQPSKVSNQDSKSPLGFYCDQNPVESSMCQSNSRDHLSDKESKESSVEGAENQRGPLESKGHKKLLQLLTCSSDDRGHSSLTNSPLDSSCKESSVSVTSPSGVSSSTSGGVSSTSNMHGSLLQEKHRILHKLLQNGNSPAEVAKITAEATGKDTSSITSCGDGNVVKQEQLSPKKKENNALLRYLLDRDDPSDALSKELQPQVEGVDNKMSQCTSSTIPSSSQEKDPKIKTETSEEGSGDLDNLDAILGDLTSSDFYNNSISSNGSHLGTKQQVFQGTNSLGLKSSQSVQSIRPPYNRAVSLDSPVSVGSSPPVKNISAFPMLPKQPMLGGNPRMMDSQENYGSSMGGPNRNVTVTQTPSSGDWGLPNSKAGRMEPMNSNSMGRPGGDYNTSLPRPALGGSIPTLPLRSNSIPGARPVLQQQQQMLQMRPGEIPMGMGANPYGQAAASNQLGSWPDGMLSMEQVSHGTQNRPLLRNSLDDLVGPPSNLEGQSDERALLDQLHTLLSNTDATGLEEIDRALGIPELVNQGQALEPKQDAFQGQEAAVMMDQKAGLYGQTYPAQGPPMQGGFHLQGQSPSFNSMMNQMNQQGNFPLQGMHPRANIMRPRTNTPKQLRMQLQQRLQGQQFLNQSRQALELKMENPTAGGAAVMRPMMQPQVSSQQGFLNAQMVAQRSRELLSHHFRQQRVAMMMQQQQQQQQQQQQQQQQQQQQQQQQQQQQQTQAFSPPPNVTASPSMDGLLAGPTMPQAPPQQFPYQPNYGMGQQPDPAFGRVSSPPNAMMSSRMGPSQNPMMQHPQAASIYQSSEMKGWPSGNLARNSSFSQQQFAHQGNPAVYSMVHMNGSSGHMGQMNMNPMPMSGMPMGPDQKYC

[6] = target: Peroxisome proliferator-activated receptor gamma/Nuclear receptor coactivator 1 (Homo sapiens, UniProt P37231); type: functional;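 note: agonist potency as compounds enhance coactivator SRC-1 recruitment to PPARgamma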
Cytochrome P450 3A4 = Cytochrome P450 3A4 (Homo sapiens, UniProt P08684);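 note: CYP3A4 tested as one member of a cytochrome P450 panel screen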
Chain of Cytochrome P450 3A4 (P08684 whole entry): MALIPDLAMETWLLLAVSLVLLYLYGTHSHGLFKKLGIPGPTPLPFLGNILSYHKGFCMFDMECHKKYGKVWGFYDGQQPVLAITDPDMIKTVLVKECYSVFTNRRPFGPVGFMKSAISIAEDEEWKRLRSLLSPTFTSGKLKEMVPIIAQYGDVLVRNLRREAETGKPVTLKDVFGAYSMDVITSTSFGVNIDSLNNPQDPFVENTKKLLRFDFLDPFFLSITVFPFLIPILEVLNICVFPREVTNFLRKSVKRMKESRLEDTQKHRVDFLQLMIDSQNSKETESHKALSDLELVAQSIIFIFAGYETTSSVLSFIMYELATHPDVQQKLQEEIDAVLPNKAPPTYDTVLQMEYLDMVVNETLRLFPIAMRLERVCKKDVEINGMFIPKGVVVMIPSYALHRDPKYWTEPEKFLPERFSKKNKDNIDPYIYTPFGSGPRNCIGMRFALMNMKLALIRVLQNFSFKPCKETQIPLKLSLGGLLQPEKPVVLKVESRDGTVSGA

[7] = target: Short transient receptor potential channel 6 (Mus musculus, UniProt Q61143); assay: TRPC6 inhibition potency of TRPC4 inhibitor analogs, dose response, selectivity assay for selective TRPC4 inhibitor project, HEK293 cells, membrane potential dye, IC50 (AID 492987); type: functional, cell-based
Chain of Short transient receptor potential channel 6 (Q61143 whole entry): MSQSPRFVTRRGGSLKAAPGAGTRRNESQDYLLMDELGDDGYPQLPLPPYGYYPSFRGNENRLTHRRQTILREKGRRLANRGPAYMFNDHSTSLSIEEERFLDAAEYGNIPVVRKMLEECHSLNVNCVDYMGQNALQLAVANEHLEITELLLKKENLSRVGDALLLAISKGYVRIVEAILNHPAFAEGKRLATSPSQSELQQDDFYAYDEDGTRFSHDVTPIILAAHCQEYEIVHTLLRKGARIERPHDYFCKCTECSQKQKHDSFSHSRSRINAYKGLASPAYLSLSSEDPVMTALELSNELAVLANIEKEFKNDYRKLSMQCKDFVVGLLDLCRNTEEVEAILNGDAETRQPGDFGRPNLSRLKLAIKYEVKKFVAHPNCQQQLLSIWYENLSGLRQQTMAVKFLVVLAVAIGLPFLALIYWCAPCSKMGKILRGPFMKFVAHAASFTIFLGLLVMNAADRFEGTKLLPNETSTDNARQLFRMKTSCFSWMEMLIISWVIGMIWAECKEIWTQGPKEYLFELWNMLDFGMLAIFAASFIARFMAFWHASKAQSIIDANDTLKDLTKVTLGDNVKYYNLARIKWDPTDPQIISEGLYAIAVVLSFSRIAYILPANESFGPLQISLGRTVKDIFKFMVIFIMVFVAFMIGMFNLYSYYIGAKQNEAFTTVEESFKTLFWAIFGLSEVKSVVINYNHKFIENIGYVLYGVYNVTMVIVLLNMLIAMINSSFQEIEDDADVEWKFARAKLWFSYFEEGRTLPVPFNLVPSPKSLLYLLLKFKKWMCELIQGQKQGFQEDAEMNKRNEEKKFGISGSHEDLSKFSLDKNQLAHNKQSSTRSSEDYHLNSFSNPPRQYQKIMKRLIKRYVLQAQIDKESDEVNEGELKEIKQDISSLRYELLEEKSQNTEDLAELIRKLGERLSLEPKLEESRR

[8] = target: T3, Short transient receptor potential channel 4 (Mus musculus, UniProt Q9QUQ5); assay: TRPC4 inhibitor concentration-response, dose response, cell-based, HEK293 TRPC4/mu-opioid, DAMGO stimulus, Fluo-4 (AID 492994); type: functional
T3 sequence (Q9QUQ5 whole entry): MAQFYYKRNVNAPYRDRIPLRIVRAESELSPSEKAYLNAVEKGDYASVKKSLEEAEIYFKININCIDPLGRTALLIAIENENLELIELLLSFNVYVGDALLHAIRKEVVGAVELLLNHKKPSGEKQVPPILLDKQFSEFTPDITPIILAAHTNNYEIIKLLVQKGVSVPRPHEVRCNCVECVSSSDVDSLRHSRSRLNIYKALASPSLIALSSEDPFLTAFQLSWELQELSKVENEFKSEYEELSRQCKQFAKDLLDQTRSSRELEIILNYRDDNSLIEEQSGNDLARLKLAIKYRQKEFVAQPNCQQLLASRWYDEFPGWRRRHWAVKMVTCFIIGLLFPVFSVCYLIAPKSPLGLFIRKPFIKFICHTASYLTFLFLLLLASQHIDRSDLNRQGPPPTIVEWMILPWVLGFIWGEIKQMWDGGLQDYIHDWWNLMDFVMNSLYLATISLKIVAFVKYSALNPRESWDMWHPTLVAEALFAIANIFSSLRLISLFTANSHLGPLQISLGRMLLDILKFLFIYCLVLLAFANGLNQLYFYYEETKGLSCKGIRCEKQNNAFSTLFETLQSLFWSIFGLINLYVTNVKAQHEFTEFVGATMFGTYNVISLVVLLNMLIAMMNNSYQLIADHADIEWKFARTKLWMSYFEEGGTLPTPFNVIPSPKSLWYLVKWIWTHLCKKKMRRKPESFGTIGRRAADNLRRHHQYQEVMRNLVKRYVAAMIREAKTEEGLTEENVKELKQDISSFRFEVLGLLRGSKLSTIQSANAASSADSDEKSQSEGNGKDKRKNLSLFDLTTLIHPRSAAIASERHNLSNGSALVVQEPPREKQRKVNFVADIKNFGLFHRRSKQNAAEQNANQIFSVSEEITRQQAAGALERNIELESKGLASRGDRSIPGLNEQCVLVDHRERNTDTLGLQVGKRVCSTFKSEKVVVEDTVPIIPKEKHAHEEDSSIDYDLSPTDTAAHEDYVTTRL

[9] = target: T3, Short transient receptor potential channel 4; assay: SAR Analysis for the identification of selective inhibits of the transient receptor potential cation channel C4 (TRPC4): Automated Electrophysiology. [Related pubchem assays (depositor defined):AID2256]; type: functional
[10] = Luminescence Cell-Based Dose Response HTS to Identify Inhibitors of 5'UTR Stem-Loop Driven Prion Protein mRNA Translation in H4 Neuroglioblastoma Cells. [Related pubchem assays: 1827 (Project Summary), 1813 (Primary HTS)]; type: functional
A-375 = assay: A375 melanoma cell viability reduction, dose response, counter-screen for MITF modulator project, cherry-pick samples, set 2 (AID 540335); type: functional, cell-based; conditions: Homo sapiens
[11] = inhibitors of firefly luciferase expression or activity, dose response, H4 neuroglioma cells, luminescence (AID 1990); type: functional, cell-based
BJ [12] = assay: cytotoxicity toward BJ-TERT-LT-ST fibroblasts, dose response, cell-based, RAS-independent, luminescence (AID 1935); type: functional; conditions: Homo sapiens;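 note: BJ fibroblasts immortalized with TERT plus LT and ST oncogenes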
[13] = nonselective inhibitors of cellular cAMP signaling, dose response, counter-screen for MC4R biased antagonist project, cell-based, TR-FRET cAMP detection (AID 602305); type: functional;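 note: U2OS cells stimulated with forskolin near its EC80 as the cAMP inducer; potency is for inhibition of forskolin-stimulated cAMP signaling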
[14] = inhibitors of SNCA 5'UTR-driven reporter translation, confirmation, H4 neuroglioma cells, luminescence (AID 1988); type: functional, cell-based
Melanocortin receptor 4 = Melanocortin receptor 4 (Homo sapiens, UniProt P32245); assay: MC4R antagonist potency on cAMP, dose response, cell-based, TR-FRET, biased antagonists (AID 602298); type: functional;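 note: antagonist potency against agonist-stimulated cAMP production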
Chain of Melanocortin receptor 4 (P32245 whole entry): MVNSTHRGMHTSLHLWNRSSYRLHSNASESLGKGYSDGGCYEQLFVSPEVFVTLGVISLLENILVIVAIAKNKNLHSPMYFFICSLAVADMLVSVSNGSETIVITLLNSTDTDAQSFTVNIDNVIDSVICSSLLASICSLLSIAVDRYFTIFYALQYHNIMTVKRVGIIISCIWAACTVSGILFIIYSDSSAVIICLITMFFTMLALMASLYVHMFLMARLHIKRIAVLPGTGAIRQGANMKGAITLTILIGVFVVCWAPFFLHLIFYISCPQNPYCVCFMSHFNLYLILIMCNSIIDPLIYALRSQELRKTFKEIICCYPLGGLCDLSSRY

[15] = cytotoxicity toward DRD oncogenic fibroblasts, dose response, cell-based, non-viral oncogenic, luminescence (AID 1934); type: functional; conditions: Homo sapiens
BJ [16] = assay: cells; type: functional, cell-based; conditions: Homo sapiens
[17] = Luminescence Cell-Based Dose Retest to Confirm Inhibitors of Cancer Stem Cells. [Related pubchem assays (depositor defined):AID2717, AID2721]; type: functional; conditions: Homo sapiens
BJ [18] = assay: cytotoxicity toward BJ-TERT fibroblasts, dose response, cell-based, RAS-independent, luminescence (AID 1933); type: functional; conditions: Homo sapiens
[19] = target: T4, Microphthalmia-associated transcription factor (Homo sapiens, UniProt O75030); assay: TRPM1 promoter luciferase signal decrease, dose response, MITF inhibitor project, cell-based, SK-MEL-5, cherry-picked, set 3 (AID 493073); type: functional
T4 sequence (O75030 whole entry): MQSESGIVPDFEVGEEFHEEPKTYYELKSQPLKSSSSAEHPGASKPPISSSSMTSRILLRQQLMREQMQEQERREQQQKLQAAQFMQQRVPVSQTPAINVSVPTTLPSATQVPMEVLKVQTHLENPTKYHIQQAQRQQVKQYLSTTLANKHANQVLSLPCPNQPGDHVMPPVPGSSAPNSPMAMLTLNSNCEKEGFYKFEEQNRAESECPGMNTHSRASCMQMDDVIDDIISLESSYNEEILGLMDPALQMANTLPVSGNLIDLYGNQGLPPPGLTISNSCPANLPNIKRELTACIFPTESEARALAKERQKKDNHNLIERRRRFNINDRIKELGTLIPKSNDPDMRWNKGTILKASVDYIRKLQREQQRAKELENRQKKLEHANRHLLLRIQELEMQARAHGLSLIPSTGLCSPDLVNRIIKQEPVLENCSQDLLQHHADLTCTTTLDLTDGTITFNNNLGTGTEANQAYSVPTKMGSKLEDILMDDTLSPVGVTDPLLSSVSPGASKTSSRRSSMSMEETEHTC

[20] = cytotoxicity in HMLE control line with eGFP shRNA, dose response, counter-screen for HMLE_sh_ECad selective toxicity project, cell-based, HMLE_sh_eGFP, luminescence (AID 463074); type: functional, Homo sapiens;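 note: HMLE human mammary epithelial cells expressing control shRNA against eGFP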
[21] = growth suppression of beta-catenin-knockout colon cells, dose response, cell-based, HCT116, human colon tumor (AID 1045); type: functional;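 note: HCT116 colon tumor cells with beta catenin knocked out; cells exposed to compound for 60 hours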
[22] = growth suppression of PTEN-null colon cells, dose response, cell-based, HCT116 PTEN knockout (AID 1047); type: functional;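 note: HCT116 colon tumor cells with PTEN knocked out; cells exposed to compound for 60 hours before readout; potency for loss of cell viability measured by luminescence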

CCc1ccc(NC2c3ccccc3C(=O)N2c2ccccc2C)cc1 (stereo unspecified)
IC50 (Hexokinase-1): > 80 µM (inactive) | IC50 (Hexokinase HKDC1): > 80 µM (inactive)

COc1cc(SC)ccc1C(=O)Nc1cc(C)ccn1
AC50 (Escherichia coli): 31.5 µM (active)

N=c1ccn(Cc2ccc(Cl)c(Cl)c2)cc1
IC50 [1]: 4.07 µM (active) | IC50 [2]: 3.32 µM (active)

Cc1nc(CN(C)c2ncnc3ccc(-c4ccc5c(c4)OCO5)cc23)cs1
AC50 [3]: < 1.95 nM (active)

c1ccc(CSc2ncnc3c2sc2nc(N4CCOCC4)c4c(c23)CCCC4)cc1
AC50 (Cytochrome P450 2D6): inconclusive | EC50 [4]: 18.6 µM (not active) | AC50 (Cytochrome P450 2C9): 1.12 µM (inconclusive) | EC50 [5]: > 79.4 µM (not active) | EC50 [6]: > 79.4 µM (not active) | AC50 (Cytochrome P450 3A4): inconclusive

Cc1ccc2nc(N3CCCC3)cc(C)c2c1
IC50 [7]: 2.03 µM (active) | IC50 [8]: 2.04 µM (active) | IC50 [9]: 3.71 µM (active)

O=C(/C=C/c1ccc(Cl)cc1)c1ccc([N+](=O)[O-])o1
EC50 [10]: > 60 µM (not active) | AC50 (A-375): 29.9 µM (active) | EC50 [11]: 8.88 µM (active) | EC50 (BJ [12]): > 150 µM (inconclusive) | IC50 [13]: > 64.6 µM (inactive) | EC50 [14]: > 120 µM (not active) | IC50 (Melanocortin receptor 4): > 64.6 µM (inactive) | EC50 [15]: 1.13 µM (inconclusive) | EC50 (BJ [16]): > 150 µM (inconclusive) | AC50 [17]: 1.21 µM (active) | EC50 (BJ [18]): > 150 µM (not active) | AC50 [19]: 5.32 µM (active)

Cc1nn(Cc2ccc(Cl)cc2)c(Cl)c1/C=N/NC(=O)CNc1ccccc1F
AC50 [20]: 24.9 µM (active) | EC50 [21]: 18 µM (active) | AC50 [17]: 16.2 µM (active) | EC50 [22]: 15.8 µM (active)
